One data set relates to glutathione-peroxidase. The data set can be described thus: In vivo effect of the additive on glutathione-peroxidase activity in plasma. Also noted: species or system human. As for the experimental part:
In vivo effect to the additive according to the invention on the glutathione-peroxidase activity in plasma.
(§1) For three weeks a quantity of 3 microgrammes of Se in the form of the additive according to the invention was administered daily to a child suffering from Protein Lysine Intolerance (PLI).

The nature of data set [1]: Se content in plasma during supplementation. The settings on record: child with Protein Lysine Intolerance, additive 3 microgrammes Se daily for three weeks, selenite as second supplementation after 13 months, successive samples. As for the experimental part: as §1

Where “and” joins values, the source holds several entries; their conditions need not be identical. Equal values may be shown once.

With `O=[Se](O)O` [selenite], the “glutathione peroxidase activity in the plasma (change during supplementation, in words)” value with glutathione-peroxidase (child with PLI, during supplementation) is “no increase”. In addition, in the data set on glutathione-peroxidase (plasma, child with Protein Lysine Intolerance, additive 3 microgrammes Se daily for three weeks, selenite as second supplementation after 13 months, successive samples), the glutathione-peroxidase activity was 0.13 U/ml and 0.12 U/ml. Besides, the Se-content in data set [1] is 20 ng/mL and 22 ng/mL and 24 ng/mL and 23 ng/mL.

These data come from patent publication US6479050B1, “Trace element-rich additive, method for preparing same, preparation in which the additive is included and use thereof” (Innovi N.V., priority 1991, dated 2002).
